Results reported in US10251394B2, “Molecules having pesticidal utility, and intermediates, compositions, and processes, related thereto” (Dow AgroSciences LLC, priority 2016, dated 2019).

Columns and labels:
[1] = test system: Cabbage Looper (Trichoplusia ni); test: Bioassay on Cabbage Looper (CL), 128-well diet tray assay; type: in vivo; settings: Cabbage Looper, Table ABC, read-out: CL rating
Procedure, shortened: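 Second-instar larvae, one to five per well, placed on artificial diet surface-treated with 50 μg/cm^2 compound in acetone-water, eight wells per compound. Held 5-7 days at 25° C, 14:10 light-dark; percent mortality per well averaged across wells.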

[2] = test system: Beet Armyworm (Spodoptera exigua); test: Bioassay on Beet Armyworm (BAW), 128-well diet tray assay; type: in vivo; settings: Beet Armyworm, Table ABC, read-out: BAW rating
Procedure, shortened: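 Second-instar larvae (one to five per well) placed on artificial diet surface-treated with 50 μg/cm^2 test molecule in 90:10 acetone-water, dried, eight wells per molecule. Held at 25° C, 14:10 light-dark, five to seven days; percent mortality recorded per well and averaged across the eight wells.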

COC(=O)CC(NC(=O)c1ccc(/C(F)=C/C(c2cc(Cl)c(Cl)c(Cl)c2)C(F)(F)F)cc1C(F)(F)F)C(F)(F)F (stereo not drawn) [F166, Methyl (Z)-4,4,4-trifluoro-3-(4-(1,4,4,4-tetrafluoro-3-(3,4,5-trichlorophenyl)but-1-en-1-yl)-2-(trifluoromethyl)benzamido)butanoate]
pest or weed control at 50 µg/cm2 [1]: 50 to 100%
pest or weed control at 50 µg/cm2 [2]: 50 to 100%

C[C@@H](NC(=O)c1ccc(/C(F)=C/C(c2cc(Cl)c(Cl)c(Cl)c2)C(F)(F)F)cc1C(F)(F)F)C(=O)NC1CC(F)(F)C1 (stereo partly drawn) [F168, N—((R)-1-((3,3-difluorocyclobutyl)amino)-1-oxopropan-2-yl)-4-((Z)-1,4,4,4-tetrafluoro-3-(3,4,5-trichlorophenyl)but-1-en-1-yl)-2-(trifluoromethyl)benzamide]
pest or weed control at 50 µg/cm2 [1]: 50 to 100%
pest or weed control at 50 µg/cm2 [2]: 50 to 100%

C[C@@H](NC(=O)c1ccc(/C(F)=C/C(c2cc(Cl)c(Cl)c(Cl)c2)C(F)(F)F)cc1C(F)(F)F)C(=O)N(O)CC(F)(F)F (stereo partly drawn) [F169, N—((R)-1-(Hydroxy(2,2,2-trifluoroethyl)amino)-1-oxopropan-2-yl)-4-((Z)-1,4,4,4-tetrafluoro-3-(3,4,5-trichlorophenyl)but-1-en-1-yl)-2-(trifluoromethyl)benzamide]
pest or weed control at 50 µg/cm2 [1]: 50 to 100%
pest or weed control at 50 µg/cm2 [2]: 50 to 100%

C[C@@H](NC(=O)c1ccc(/C(F)=C/C(c2ccc(Br)c(F)c2)C(F)(F)F)cc1C(F)(F)F)C(=O)NCC(F)(F)F (stereo partly drawn) [F170, 4-((Z)-3-(4-Bromo-3-fluorophenyl)-1,4,4,4-tetrafluorobut-1-en-1-yl)-N—((R)-1-oxo-1-((2,2,2-trifluoroethyl)amino)propan-2-yl)-2-(trifluoromethyl)benzamide]
pest or weed control at 50 µg/cm2 [1]: 50 to 100%
pest or weed control at 50 µg/cm2 [2]: 50 to 100%

O=C(N[C@@H]1CCN(CC(F)(F)F)C1=O)c1ccc(/C(F)=C/C(c2cc(Cl)c(Cl)c(Cl)c2)C(F)(F)F)cc1C(F)(F)F (stereo partly drawn) [F171, N—((R)-2-Oxo-1-(2,2,2-trifluoroethyl)pyrrolidin-3-yl)-4-((Z)-1,4,4,4-tetrafluoro-3-(3,4,5-trichlorophenyl)but-1-en-1-yl)-2-(trifluoromethyl)benzamide]
pest or weed control at 50 µg/cm2 [1]: 50 to 100%
pest or weed control at 50 µg/cm2 [2]: 50 to 100%

CNC(=O)[C@@H](C)NC(=O)c1ccc(/C(F)=C/C(c2cc(Cl)c(Cl)c(Cl)c2)C(F)(F)F)cc1C(F)(F)F (stereo partly drawn) [F173, N—((R)-1-(Methylamino)-1-oxopropan-2-yl)-4-((Z)-1,4,4,4-tetrafluoro-3-(3,4,5-trichlorophenyl)but-1-en-1-yl)-2-(trifluoromethyl)benzamide]
pest or weed control at 50 µg/cm2 [1]: 50 to 100%
pest or weed control at 50 µg/cm2 [2]: 50 to 100%

CCC(F)(F)C(/C=C(\F)c1ccc(C(=O)N[C@H](C)C(=O)NCC(F)(F)F)c(C(F)(F)F)c1)c1cc(Cl)c(Cl)c(Cl)c1 (stereo partly drawn) [F174, N—((R)-1-Oxo-1-((2,2,2-trifluoroethyl)amino)propan-2-yl)-4-((Z)-1,4,4-trifluoro-3-(3,4,5-trichlorophenyl)hex-1-en-1-yl)-2-(trifluoromethyl)benzamide]
pest or weed control at 50 µg/cm2 [1]: 50 to 100%
pest or weed control at 50 µg/cm2 [2]: 50 to 100%

C[C@@H](NC(=O)c1ccc(/C(F)=C/C(c2cc(Cl)cc(C(C)(F)F)c2)C(F)(F)F)cc1C(F)(F)F)C(=O)NCC(F)(F)F (stereo partly drawn) [F175, 4-((Z)-3-(3-Chloro-5-(1,1-difluoroethyl)phenyl)-1,4,4,4-tetrafluorobut-1-en-1-yl)-N—((R)-1-oxo-1-((2,2,2-trifluoroethyl)amino)propan-2-yl)-2-(trifluoromethyl)benzamide]
pest or weed control at 50 µg/cm2 [1]: 50 to 100%
pest or weed control at 50 µg/cm2 [2]: 50 to 100%

C[C@@H](NC(=O)c1ccc(/C(F)=C/C(c2cc(Cl)cc(CC(F)(F)F)c2)C(F)(F)F)cc1C(F)(F)F)C(=O)NCC(F)(F)F (stereo partly drawn) [F176, 4-((Z)-3-(3-Chloro-5-(2,2,2-trifluoroethyl)phenyl)-1,4,4,4-tetrafluorobut-1-en-1-yl)-N—((R)-1-oxo-1-((2,2,2-trifluoroethyl)amino)propan-2-yl)-2-(trifluoromethyl)benzamide]
pest or weed control at 50 µg/cm2 [1]: 50 to 100%
pest or weed control at 50 µg/cm2 [2]: 50 to 100%

O=C(N[C@@H]1CON(CC(F)(F)F)C1=O)c1ccc(/C(F)=C/C(c2cc(Cl)cc(CC(F)(F)F)c2)C(F)(F)F)cc1C(F)(F)F (stereo partly drawn) [F178, 4-((Z)-3-(3-Chloro-5-(2,2,2-trifluoroethyl)phenyl)-1,4,4,4-tetrafluorobut-1-en-1-yl)-N—((R)-3-oxo-2-(2,2,2-trifluoroethyl)isoxazolidin-4-yl)-2-(trifluoromethyl)benzamide]
pest or weed control at 50 µg/cm2 [1]: 50 to 100%
pest or weed control at 50 µg/cm2 [2]: 50 to 100%

C[C@@H](NC(=O)c1ccc(/C(F)=C/C(c2cc(Cl)cc(OC(F)(F)F)c2)C(F)(F)F)cc1C(F)(F)F)C(=O)NCC(F)(F)F (stereo partly drawn) [F181, 4-((Z)-3-(3-Chloro-5-(trifluoromethoxy)phenyl)-1,4,4,4-tetrafluorobut-1-en-1-yl)-N—((R)-1-oxo-1-((2,2,2-trifluoroethyl)amino)propan-2-yl)-2-(trifluoromethyl)benzamide]
pest or weed control at 50 µg/cm2 [1]: 50 to 100%
pest or weed control at 50 µg/cm2 [2]: 50 to 100%

C[C@@H](NC(=O)c1ccc(/C(F)=C/C(c2ccc(OC(F)(F)F)c(Cl)c2)C(F)(F)F)cc1C(F)(F)F)C(=O)NCC(F)(F)F (stereo partly drawn) [F182, 4-((Z)-3-(3-Chloro-4-(trifluoromethoxy)phenyl)-1,4,4,4-tetrafluorobut-1-en-1-yl)-N—((R)-1-oxo-1-((2,2,2-trifluoroethyl)amino)propan-2-yl)-2-(trifluoromethyl)benzamide]
pest or weed control at 50 µg/cm2 [1]: 50 to 100%
pest or weed control at 50 µg/cm2 [2]: 50 to 100%

C[C@@H](NC(=O)c1ccc(/C(F)=C/C(c2ccc(Cl)c(OC(F)(F)F)c2)C(F)(F)F)cc1C(F)(F)F)C(=O)NCC(F)(F)F (stereo partly drawn) [F183, 4-((Z)-3-(4-Chloro-3-(trifluoromethoxy)phenyl)-1,4,4,4-tetrafluorobut-1-en-1-yl)-N—((R)-1-oxo-1-((2,2,2-trifluoroethyl)amino)propan-2-yl)-2-(trifluoromethyl)benzamide]
pest or weed control at 50 µg/cm2 [1]: 50 to 100%
pest or weed control at 50 µg/cm2 [2]: 50 to 100%

C=Cc1cc(C(/C=C(\F)c2ccc(C(=O)N[C@H](C)C(=O)NCC(F)(F)F)c(C(F)(F)F)c2)C(F)(F)F)cc(C=C)c1Cl (stereo partly drawn) [F184, 4-((Z)-3-(4-Chloro-3,5-divinylphenyl)-1,4,4,4-tetrafluorobut-1-en-1-yl)-N—((R)-1-oxo-1-((2,2,2-trifluoroethyl)amino)propan-2-yl)-2-(trifluoromethyl)benzamide]
pest or weed control at 50 µg/cm2 [1]: 50 to 100%
pest or weed control at 50 µg/cm2 [2]: 50 to 100%

C[C@@H](NC(=O)c1ccc(/C(F)=C/C(c2cc(Cl)c(Cl)c(Br)c2)C(F)(F)F)cc1C(F)(F)F)C(=O)NCC(F)(F)F (stereo partly drawn) [F185, 4-((Z)-3-(3-Bromo-4,5-dichlorophenyl)-1,4,4,4-tetrafluorobut-1-en-1-yl)-N—((R)-1-oxo-1-((2,2,2-trifluoroethyl)amino)propan-2-yl)-2-(trifluoromethyl)benzamide]
pest or weed control at 50 µg/cm2 [1]: 50 to 100%
pest or weed control at 50 µg/cm2 [2]: 50 to 100%

C=Cc1cc(C(/C=C(\F)c2ccc(C(=O)N[C@H](C)C(=O)NCC(F)(F)F)c(C(F)(F)F)c2)C(F)(F)F)cc(Cl)c1Cl (stereo partly drawn) [F186, 4-((Z)-3-(3,4-dichloro-5-vinylphenyl)-1,4,4,4-tetrafluorobut-1-en-1-yl)-N—((R)-1-oxo-1-((2,2,2-trifluoroethyl)amino)propan-2-yl)-2-(trifluoromethyl)benzamide]
pest or weed control at 50 µg/cm2 [1]: 50 to 100%
pest or weed control at 50 µg/cm2 [2]: 50 to 100%

C=C(C)c1cc(C(/C=C(\F)c2ccc(C(=O)N[C@H](C)C(=O)NCC(F)(F)F)c(C(F)(F)F)c2)C(F)(F)F)cc(Cl)c1Cl (stereo partly drawn) [F187, 4-((Z)-3-(3,4-Dichloro-5-(prop-1-en-2-yl)phenyl)-1,4,4,4-tetrafluoro-but-1-en-1-yl)-N—((R)-1-oxo-1-((2,2,2-trifluoroethyl)amino)propan-2-yl)-2-(trifluoromethyl)benzamide]
pest or weed control at 50 µg/cm2 [1]: 50 to 100%
pest or weed control at 50 µg/cm2 [2]: 50 to 100%

C/C=C/c1cc(C(/C=C(\F)c2ccc(C(=O)N[C@H](C)C(=O)NCC(F)(F)F)c(C(F)(F)F)c2)C(F)(F)F)cc(Cl)c1Cl (stereo partly drawn) [F188, 4-((Z)-3-(3,4-Dichloro-5-((E)-prop-1-en-1-yl)phenyl)-1,4,4,4-tetrafluorobut-1-en-1-yl)-N—((R)-1-oxo-1-((2,2,2-trifluoroethyl)amino)propan-2-yl)-2-(trifluoromethyl)benzamide]
pest or weed control at 50 µg/cm2 [1]: 50 to 100%
pest or weed control at 50 µg/cm2 [2]: 50 to 100%

C#Cc1cc(C(/C=C(\F)c2ccc(C(=O)N[C@H](C)C(=O)NCC(F)(F)F)c(C(F)(F)F)c2)C(F)(F)F)cc(Cl)c1Cl (stereo partly drawn) [F189, 4-((Z)-3-(3,4-Dichloro-5-ethynylphenyl)-1,4,4,4-tetrafluorobut-1-en-1-yl)-N—((R)-1-oxo-1-((2,2,2-trifluoroethyl)amino)propan-2-yl)-2-(trifluoromethyl)benzamide]
pest or weed control at 50 µg/cm2 [1]: 50 to 100%
pest or weed control at 50 µg/cm2 [2]: 50 to 100%

CC#Cc1cc(C(/C=C(\F)c2ccc(C(=O)N[C@H](C)C(=O)NCC(F)(F)F)c(C(F)(F)F)c2)C(F)(F)F)cc(Cl)c1Cl (stereo partly drawn) [F190, 4-((Z)-3-(3,4-Dichloro-5-(prop-1-yn-1-yl)phenyl)-1,4,4,4-tetrafluorobut-1-en-1-yl)-N—((R)-1-oxo-1-((2,2,2-trifluoroethyl)amino)propan-2-yl)-2-(trifluoromethyl)benzamide]
pest or weed control at 50 µg/cm2 [1]: 50 to 100%
pest or weed control at 50 µg/cm2 [2]: 50 to 100%

C[C@@H](NC(=O)c1ccc(/C(F)=C/C(c2cc(Cl)c(Cl)c(C#CC(C)(C)C)c2)C(F)(F)F)cc1C(F)(F)F)C(=O)NCC(F)(F)F (stereo partly drawn) [F191, 4-((Z)-3-(3,4-Dichloro-5-(3,3-dimethylbut-1-yn-1-yl)phenyl)-1,4,4,4-tetrafluorobut-1-en-1-yl)-N—((R)-1-oxo-1-((2,2,2-trifluoroethyl)amino)propan-2-yl)-2-(trifluoromethyl)benzamide]
pest or weed control at 50 µg/cm2 [1]: 50 to 100%
pest or weed control at 50 µg/cm2 [2]: 50 to 100%
